*1 amine or outer side, *2 acyl side, *3 side chain or, on linkers, in order; H or OH if unused. Where a SMILES comes first, the peptide text is derived from it. Bridges are numbered along the chain shown (N, C = ends). [ ]: non-standard residue; d: D form. ξ: configuration not given here. Ile(4R-OH,5-OH) = C[C@H]([C@H](N)C(=O)O)[C@@H](O)CO; X2 = Nc1ccc2c(CC(N[*:1])C(=O)[*:2])c([*:3])[nH]c2c1; X1 = O=C([C@@H]1CC(O)CN1[*:1])[*:2]; ξC = NC(CS)C(=O)O

Series [1] in a line: BrdU cell proliferation assay (cytotoxicity) on HEK293 cells. It is filed as cell-based. The settings on record: human, 96 h incubation, BrdU assay (FIG. 4). The procedure:
(§1) BrdU Cell Proliferation Assay on HEK293 and HEK293 OATP1B3 cells
(§2) Black 96-well plates with clear bottom with 2.0×10^3 HEK293 and HEK293 OATP1B3 cells/well and 90 μl growth medium per well including 10% FCS and supplements were prepared. Controls: “Blank” was set up with 100 μl medium without cells, “Background” and “100%” were set up with cells in 100 μl medium.
(§3) Incubation for 24 h at 37° C. and 5% CO2.
(§4) Dilution Scheme of HDP 30.2528 and Alpha-Amanitin:
(§5) The stock solutions were diluted 1:1,000 (1:10 and 1:100 dilution) in medium: • 10 μl Amanitin derivative stock solution (1.0×10^−2 M)+90 μl PBS=100 μl 1.0×10^−3 M • 2 μl dilution+198 μl medium=200 μl 1×10^−5 M
Further Dilutions: • A: 200 μl 1.0×10^−5 M • B: 80 μl growth medium+20 μl solution A (1:5 dilution) • C: 80 μl growth medium+20 μl solution B (1:5 dilution) • D: 80 μl growth medium+20 μl solution C (1:5 dilution) • E: 80 μl growth medium+20 μl solution D (1:5 dilution) • F: 80 μl growth medium+20 μl solution E (1:5 dilution) • G: 80 μl growth medium+20 μl solution F (1:5 dilution) • H: 80 μl growth medium+20 μl solution G (1:5 dilution)
10 μl of each solution were added to well triplicates. […]

The nature of series [2]: BrdU cell proliferation assay (cytotoxicity) on HEK293 OATP1B3 cells. It is filed as cell-based. The conditions noted are these: human, 96 h incubation, BrdU assay (FIG. 4). The method, then:
as §1
HEK293-OATP1B3 cell culture plates were coated with poly-D-lysine.
Coating with Poly-D-Lysine: • 5 mg poly D-lysine in 50 ml sterile water • 50 μl in each well of a 96 well plate • Incubation for 1 h at RT • Washing of wells twice with 200 μl sterile water • Drying for at least for 2 h (RT)
as §2, §3, §4, §5
Further Dilutions: • A: 200 μl 1.0×10^−5 M • B: 80 μl growth medium+20 μl solution A (1:5 dilution) • C: 80 μl growth medium+20 μl solution B (1:5 dilution) • D: 80 μl growth medium+20 μl solution C (1:5 dilution) • E: 80 μl growth medium+20 μl solution D (1:5 dilution) • F: 80 μl growth medium+20 μl solution E (1:5 dilution) • G: 80 μl growth medium+20 μl solution F (1:5 dilution) • H: 80 μl growth medium+20 μl solution G (1:5 dilution) […]

Series [3] has as its target DNA-dependent RNA polymerase II (Homo sapiens, UniProt P24928+P30876). The settings on record: background statement, no test in the patent; read-out: KD of the complex with RNA-polymerase II; cited from earlier work.

`CC[C@H](C)[C@@H]1NC(=O)CNC(=O)C2Cc3c([nH]c4cc(N)ccc34)SCC(NC(=O)CNC1=O)C(=O)N[C@@H](CC(N)=O)C(=O)N1CC(O)C[C@H]1C(=O)N[C@@H]([C@@H](C)[C@@H](O)CO)C(=O)N2` (stereo partly drawn) [HDP 30.2528, 6′-amino-amaninamide] (cyclo(GIG[ξC]N[X1][Ile(4R-OH,5-OH)][X2]); thioether 4-8): the EC50 (commonly the concentration at which the effect is half-maximal) at 96 h was 3000 nM in series [1] and 30 nM in series [2]. Turning to amanitin, the Kd – broadly, the concentration at which binding is half-saturated – in series [3] was 3 nM.

The values above are taken from patent US11926631B2, “Method of treating cancer using amanitin derivatives” (Heidelberg Pharma Research GmbH, priority 2017, dated 2024).
